Measurements taken from PubChem BioAssay AID330 (DTP/NCI, 2004).
Several values for one entry are separate records, joined by “and”; a condition that tells them apart may be missing. Equal values may be shown once. Inconclusive results and toxic doses are left out.

System: P388 leukemia ip, CD2F1 mice, survival T/C
Test: NCI In Vivo Anticancer Drug Screen. Data for tumor model P388 Leukemia (intraperitoneal) in CD2F1 (CDF1) mice
Conditions: endpoint: median survival time, higher = longer survival
How it was run: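 Mice carrying the transplanted tumor received test compound or vehicle. Survival was recorded in each group, and the value is the treated-group measurement divided by that of the vehicle-treated control group.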

[1] = dose: 50.0 mg/kg/injection, schedule: Q01DX005 (ip), vehicle: Klucel (hydroxypropylcellulose) (HPC)
[2] = dose: 100.0 mg/kg/injection, schedule: Q01DX005 (ip), vehicle: Klucel (hydroxypropylcellulose) (HPC)
[3] = dose: 200.0 mg/kg/injection, schedule: Q01DX005 (ip), vehicle: Klucel (hydroxypropylcellulose) (HPC)
[4] = dose: 7.5 mg/kg/injection, schedule: Q01DX009 (ip), vehicle: saline with Tween-80
[5] = dose: 15.0 mg/kg/injection, schedule: Q01DX009 (ip), vehicle: saline with Tween-80
[6] = dose: 30.0 mg/kg/injection, schedule: Q01DX009 (ip), vehicle: saline with Tween-80
[7] = dose: 50.0 mg/kg/injection, schedule: Q01DX009 (ip), vehicle: saline with Tween-80
[8] = dose: 100.0 mg/kg/injection, schedule: Q01DX009 (ip), vehicle: saline with Tween-80
[9] = dose: 200.0 mg/kg/injection, schedule: Q01DX009 (ip), vehicle: saline with Tween-80
[10] = dose: 50.0 mg/kg/injection, schedule: Q01DX009 (ip), vehicle: saline
[11] = dose: 200.0 mg/kg/injection, schedule: Q01DX009 (ip), vehicle: saline
[12] = dose: 100.0 mg/kg/injection, schedule: Q01DX009 (ip), vehicle: saline
[13] = dose: 1.56 mg/kg/injection, schedule: Q01DX009 (ip), vehicle: saline
[14] = dose: 6.25 mg/kg/injection, schedule: Q01DX009 (ip), vehicle: saline
[15] = dose: 60.0 mg/kg/injection, schedule: Q01DX005 (ip), vehicle: saline with Tween-80
[16] = dose: 120.0 mg/kg/injection, schedule: Q01DX005 (ip), vehicle: saline with Tween-80
[17] = dose: 25.0 mg/kg/injection, schedule: Q01DX009 (ip), vehicle: saline with Tween-80
[18] = dose: 50.0 mg/kg/injection, schedule: Q01DX005 (ip), vehicle: saline
[19] = dose: 100.0 mg/kg/injection, schedule: Q01DX005 (ip), vehicle: saline

COC(=O)c1cc(=O)n(C)[nH]1
T/C [1]: 104 % of control
T/C [2]: 105 % of control
T/C [3]: 98 % of control

[SeH]c1ccccc1
T/C [4]: 106 % of control
T/C [5]: 113 % of control
T/C [6]: 116 % of control

O=C1NN=C2CCCCCCCCCCC12 (stereo unspecified)
T/C [7]: 96 % of control
T/C [8]: 89 % of control
T/C [9]: 89 % of control

c1ccc2c3cc(cc2c1)OCCOCCOCCOc1ccc2ccccc2c1-c1c(ccc2ccccc12)OCCOCCOc1ccc2ccccc2c1-3
T/C (dose: 100.0 mg/kg/injection, schedule: Q01DX001 (ip), vehicle: saline with Tween-80): 97 % of control
T/C (dose: 200.0 mg/kg/injection, schedule: Q01DX001 (ip), vehicle: saline with Tween-80): 94 % of control

CC(C)(C)CC(C)(C)c1ccc(OCc2cccc(Cl)c2)cc1
T/C [7]: 97 % of control
T/C [8]: 96 % of control
T/C [9]: 95 % of control

O=CC=O
T/C (dose: 25.0 mg/kg/injection, schedule: Q01DX009 (ip), vehicle: saline): 98 % of control
T/C [7]: 116 % of control
T/C [10]: 120 % of control
T/C [9]: 152 % of control
T/C [11]: 88 % of control

CC(=O)OC1COC(n2cnc3c(Cl)nc(Cl)nc32)C(OC(C)=O)C1OC(C)=O (stereo unspecified)
T/C [1]: 107 % of control
T/C [2]: 108 % of control

CNc1c(NC)n(C)c(=O)n(C)c1=O
T/C [7]: 90 % of control
T/C [10]: 109 % of control
T/C [8]: 105 % of control and 97 % of control
T/C [12]: 109 % of control
T/C [9]: 121 % of control and 97 % of control
T/C [11]: 106 % of control
T/C (dose: 400.0 mg/kg/injection, schedule: Q01DX009 (ip), vehicle: saline with Tween-80): 100 % of control and 112 % of control

Cc1c(C2=C(Br)C(=O)N(C)C2=O)c(=O)n(C)c(=O)n1C
T/C (dose: 60.0 mg/kg/injection, schedule: Q01DX005 (ip), vehicle: Klucel (hydroxypropylcellulose) (HPC)): 111 % of control
T/C (dose: 120.0 mg/kg/injection, schedule: Q01DX005 (ip), vehicle: Klucel (hydroxypropylcellulose) (HPC)): 118 % of control

COc1cc2cc(-c3cc(OC)c(OC)c(OC)c3)c3c(c2cc1OC)CNC3
T/C (dose: 3.12 mg/kg/injection, schedule: Q04DX003 (ip), vehicle: saline with Tween-80): 100 % of control
T/C (dose: 6.25 mg/kg/injection, schedule: Q04DX003 (ip), vehicle: saline with Tween-80): 105 % of control
T/C (dose: 12.5 mg/kg/injection, schedule: Q04DX003 (ip), vehicle: saline with Tween-80): 100 % of control
T/C (dose: 25.0 mg/kg/injection, schedule: Q04DX003 (ip), vehicle: saline with Tween-80): 98 % of control
T/C (dose: 50.0 mg/kg/injection, schedule: Q04DX003 (ip), vehicle: saline with Tween-80): 97 % of control

O=c1[nH]nnc2ccccc12
T/C (dose: 50.0 mg/kg/injection, schedule: Q01DX009 (ip), vehicle: Klucel (hydroxypropylcellulose) (HPC)): 105 % of control
T/C (dose: 100.0 mg/kg/injection, schedule: Q01DX009 (ip), vehicle: Klucel (hydroxypropylcellulose) (HPC)): 114 % of control

CN(C)CCSc1cccc2c1C(=O)c1cccc(SCCN(C)C)c1C2=O
T/C (dose: 0.78 mg/kg/injection, schedule: Q01DX009 (ip), vehicle: saline): 89 % of control
T/C [13]: 90 % of control
T/C (dose: 3.13 mg/kg/injection, schedule: Q01DX009 (ip), vehicle: saline): 98 % of control
T/C (dose: 3.13 mg/kg/injection, schedule: Q01DX009 (ip), vehicle: water): 105 % of control and 98 % of control
T/C [14]: 86 % of control
T/C (dose: 6.25 mg/kg/injection, schedule: Q01DX009 (ip), vehicle: water): 99 % of control and 100 % of control
T/C (dose: 12.5 mg/kg/injection, schedule: Q01DX009 (ip), vehicle: saline): 121 % of control
T/C (dose: 12.5 mg/kg/injection, schedule: Q01DX009 (ip), vehicle: water): 101 % of control and 90 % of control
T/C (dose: 25.0 mg/kg/injection, schedule: Q01DX009 (ip), vehicle: water): 100 % of control and 92 % of control
T/C (dose: 50.0 mg/kg/injection, schedule: Q01DX009 (ip), vehicle: water): 90 % of control

Cc1cc(Cl)ccc1NC(=O)NC(C)(C)COC(=O)Nc1cccc(Cl)c1
T/C (dose: 15.0 mg/kg/injection, schedule: Q01DX005 (ip), vehicle: saline with Tween-80): 99 % of control
T/C (dose: 30.0 mg/kg/injection, schedule: Q01DX005 (ip), vehicle: saline with Tween-80): 94 % of control
T/C [15]: 90 % of control
T/C [16]: 86 % of control

COc1cccc2cc(C)[nH]c12
T/C [17]: 97 % of control
T/C [7]: 97 % of control
T/C [8]: 103 % of control

C(=Nc1ccccc1-c1ccccc1N=Cc1ccccc1)c1ccccc1
T/C [13]: 100 % of control and 91 % of control
T/C (dose: 3.12 mg/kg/injection, schedule: Q01DX009 (ip), vehicle: saline): 91 % of control
T/C (dose: 6.25 mg/kg/injection, schedule: Q01DX009 (ip), vehicle: saline with Tween-80): 104 % of control
T/C [14]: 88 % of control and 93 % of control
T/C [17]: 86 % of control
T/C [12]: 96 % of control
T/C [11]: 89 % of control

COC(=O)c1ccccc1NC1=NS(=O)(=O)c2ccccc2N1C
T/C (dose: 50.0 mg/kg/injection, schedule: Q01DX005 (ip), vehicle: saline with Tween-80): 87 % of control
T/C (dose: 100.0 mg/kg/injection, schedule: Q01DX005 (ip), vehicle: saline with Tween-80): 86 % of control
T/C (dose: 200.0 mg/kg/injection, schedule: Q01DX005 (ip), vehicle: saline with Tween-80): 87 % of control

O=C1C2CC=C3CCCC3C2C(=O)C2CC=C3CCCC3C12 (stereo unspecified)
T/C [4]: 105 % of control
T/C [5]: 102 % of control
T/C [6]: 106 % of control

CN(CCC(=O)/C(=C\c1ccccc1)c1ccc(Cl)cc1)Cc1ccccc1
T/C (dose: 0.4 mg/kg/injection, schedule: Q01DX005 (ip), vehicle: saline with Tween-80): 101 % of control
T/C (dose: 0.8 mg/kg/injection, schedule: Q01DX005 (ip), vehicle: saline with Tween-80): 102 % of control
T/C (dose: 1.6 mg/kg/injection, schedule: Q01DX005 (ip), vehicle: saline with Tween-80): 109 % of control
T/C (dose: 3.12 mg/kg/injection, schedule: Q01DX005 (ip), vehicle: saline with Tween-80): 109 % of control
T/C (dose: 6.25 mg/kg/injection, schedule: Q01DX005 (ip), vehicle: saline with Tween-80): 111 % of control

C[CH2][Sn]([CH2]C(=O)OC)([CH2]C(=O)OC)[c]1ccccc1
T/C (dose: 25.0 mg/kg/injection, schedule: Q01DX005 (ip), vehicle: saline): 157 % of control
T/C [18]: 181 % of control
T/C [19]: 168 % of control

CC(O)C(C(c1ccccc1)N1CCOCC1)N1CCOCC1 (stereo unspecified)
T/C [1]: 99 % of control
T/C [2]: 90 % of control
T/C [3]: 98 % of control

Cc1ccc2ccc3ccc(CBr)nc3c2n1
T/C (dose: 3.12 micromoles/kg, schedule: Q01DX005 (ip), vehicle: other): 110 % of control
T/C (dose: 6.25 micromoles/kg, schedule: Q01DX005 (ip), vehicle: other): 99 % of control
T/C (dose: 12.0 micromoles/kg, schedule: Q01DX005 (ip), vehicle: other): 111 % of control

CCOC(=O)C1=C(C(=O)c2ccc(C)cc2)C(c2ccc([N+](=O)[O-])cc2)C(C(=O)c2ccc(C)cc2)=C(C(=O)OCC)N1
T/C [15]: 90 % of control
T/C [16]: 90 % of control

COc1cc2c3c(c1)/C(=N\Nc1ccccc1)CCN3CCC2
T/C (dose: 3.12 mg/kg/injection, schedule: Q01DX009 (ip), vehicle: DMSO): 99 % of control

C=C1CCC2C(C)(CCC(OCCCCC)C2(C)C(=O)OC)C1CCc1ccoc1 (stereo unspecified)
T/C (dose: 8.25 mg/kg/injection, schedule: Q01DX005 (ip), vehicle: Klucel + Tween-80): 100 % of control
T/C (dose: 16.5 mg/kg/injection, schedule: Q01DX005 (ip), vehicle: Klucel + Tween-80): 102 % of control
T/C (dose: 33.0 mg/kg/injection, schedule: Q01DX005 (ip), vehicle: Klucel + Tween-80): 100 % of control
T/C (dose: 66.0 mg/kg/injection, schedule: Q01DX005 (ip), vehicle: Klucel + Tween-80): 94 % of control

Cc1cc(C)n(C(=O)n2nc(C)cc2C)n1
T/C [18]: 100 % of control
T/C [19]: 107 % of control
T/C (dose: 200.0 mg/kg/injection, schedule: Q01DX005 (ip), vehicle: saline): 100 % of control
